Measured values: patent US10479764B2, “2-methylene-(22E)-25-hexanoyl-24-oxo-26,27-cyclo-22-dehydro-19-nor-vitamin D analogs” (WISCONSIN ALUMNI RESEARCH FOUNDATION, priority 2011, dated 2019)
Where two headings read alike, the source gives them in different places.

What was measured:
[1] = Bone calcium mobilization (serum calcium) in vitamin D-deficient rats; type: in vivo, rat
Method: (§1) Intestinal Calcium Transport and Bone Calcium Mobilization
(§2) Male, weanling Sprague-Dawley rats were placed on Diet 11 (0.47% Ca) diet+AEK oil for one week followed by Diet 11 (0.02% Ca)+AEK oil for 3 weeks. The rats were then switched to a diet containing 0.47% Ca for one week followed by two weeks on a diet containing 0.02% Ca. Dose administration began during the last week on 0.02% calcium diet. Four consecutive ip doses were given approximately 24 hours apart. Twenty-four hours after the last dose, blood was collected from the severed neck and the concentration of serum calcium determined as a measure of bone calcium mobilization. The first 10 cm of the intestine was also collected for intestinal calcium transport analysis using the everted gut sac method.

[2] = tested on: 24-hydroxylase (24Ohase) gene promoter in ROS 17/2.8 (bone) cells; experiment: In vitro transcription assay (24-hydroxylase promoter luciferase reporter); type: cell-based; details: ROS 17/2.8 cells, FIG. 3, read-out: EC50, transcriptional activity in bone cells (24-hydroxylase gene)
Method: In Vitro Transcription Assay
Transcription activity was measured in ROS 17/2.8 (bone) cells that were stably transfected with a 24-hydroxylase (24Ohase) gene promoter upstream of a luciferase reporter gene (Arbour et al., 1998). Cells were given a range of doses. Sixteen hours after dosing the cells were harvested and luciferase activities were measured using a luminometer.
RLU=relative luciferase units.

HL-60 cells = experiment: HL-60 differentiation (nitro blue tetrazolium reduction); type: cell-based, human; details: differentiation of HL-60 cells into monocytes, FIG. 2, read-out: EC50, HL-60 cell differentiation
Method: The study drugs were dissolved in ethanol and the concentrations determined using UV spectrophotometry. Serial dilutions were prepared so that a range of drug concentrations could be tested without changing the final concentration of ethanol (≤0.2%) present in the cell cultures.
Human promyelocytic leukemia (HL60) cells were grown in RPMI-1640 medium containing 10% fetal bovine serum. The cells were incubated at 37° C. in the presence of 5% CO2.
HL60 cells were plated at 1.2×10^5 cells/ml. Eighteen hours after plating, cells in duplicate were treated with drug. Four days later, the cells were harvested and a nitro blue tetrazolium reduction assay was performed (Collins et al., 1979; J. Exp. Med. 149:969-974). The percentage of differentiated cells was determined by counting a total of 200 cells and recording the number that contained intracellular black-blue formazan deposits. Verification of differentiation to monocytic cells was determined by measuring phagocytic activity (data not shown).

[3] = target: T1, full-length recombinant rat vitamin D receptor (Rattus norvegicus, UniProt P13053); experiment: Vitamin D receptor binding, competition with [3H]-1,25(OH)2D3; details: full-length recombinant rat VDR; FIG. 1
T1 construct: Full-length recombinant rat receptor was expressed in E. coli; histidine tag (C); made in house; host or cells: E. coli BL21 (DE3) Codon Plus RIL
T1 sequence (P13053 1-423): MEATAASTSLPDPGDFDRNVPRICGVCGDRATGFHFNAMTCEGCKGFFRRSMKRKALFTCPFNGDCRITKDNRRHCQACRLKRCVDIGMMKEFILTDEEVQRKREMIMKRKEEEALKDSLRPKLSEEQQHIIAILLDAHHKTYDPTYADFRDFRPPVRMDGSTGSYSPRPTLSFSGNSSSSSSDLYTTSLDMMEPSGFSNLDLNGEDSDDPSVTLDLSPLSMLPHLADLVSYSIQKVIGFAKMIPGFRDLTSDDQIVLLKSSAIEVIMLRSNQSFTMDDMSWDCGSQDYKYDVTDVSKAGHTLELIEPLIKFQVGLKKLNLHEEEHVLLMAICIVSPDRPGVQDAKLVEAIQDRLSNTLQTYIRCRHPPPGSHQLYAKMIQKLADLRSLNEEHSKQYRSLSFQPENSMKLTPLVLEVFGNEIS
Text: Vitamin D Receptor Binding
Full-length recombinant rat receptor was expressed in E. coli BL21 (DE3) Codon Plus RIL cells and purified to homogeneity using two different column chromatography systems. The first system was a nickel affinity resin that utilizes the C-terminal histidine tag on this protein. The protein that was eluted from this resin was further purified using ion exchange chromatography (S-Sepharose Fast Flow). Aliquots of the purified protein were quick frozen in liquid nitrogen and stored at −80° C. until use. For use in binding assays, the protein was diluted in TEDK50 (50 mM Tris, 1.5 mM EDTA, pH7.4, 5 mM DTT, 150 mM KCl) with 0.1% Chaps detergent. The receptor protein and ligand concentration were optimized such that no more than 20% of the added radiolabeled ligand was bound to the receptor.
The following day, 100 mcl of hydroxylapatite slurry (50%) was added to each tube and mixed at 10-minute intervals for 30 minutes. The hydroxylapaptite was collected by centrifugation and then washed three times with Tris-EDTA buffer (50 mM Tris, 1.5 mM EDTA, pH 7.4) containing 0.5% Titron X-100. After the final wash, the pellets were transferred to scintillation vials containing 4 ml of Biosafe II scintillation cocktail, mixed and placed in a scintillation counter. Total binding was determined from the tubes containing only radiolabeled ligand.

[4] = Intestinal calcium transport (everted gut sac) in vitamin D-deficient rats; type: in vivo, rat
Method: as §1, §2

| Structure (SMILES) | serum calcium levels (bone calcium mobilization) ([1]; vitamin D-deficient rats, low calcium diet (0.02%), all dosages, FIGS. 4A and 4B) | EC50 [2] [nM] | EC50 (HL-60 cells) [nM] | bone calcium mobilization at 780 pmol/day ([1]; 780 pmol/day, FIG. 4B, second group of animals) | dose giving about the same mobilization of bone calcium as 1,25(OH)2D3 at 260 pmol/day ([1]; 4 consecutive days, ip, FIG. 4A, first group of animals) [pmol/day] | dose giving about the same mobilization of bone calcium as native hormone at 780 pmol/day ([1]; 4 consecutive days, ip, FIG. 4B, second group of animals) [pmol/day] | bone calcium mobilization activity, times less than 1,25(OH)2D3 ([1]; FIGS. 4A and 4B) | EC50 (HL-60 cells; Homo sapiens) [nM] | Ki [3] [nM] | intestinal calcium transport activity at 87 pmol/day ([4]; 87 pmol/day for 4 consecutive days, FIG. 5A) | intestinal calcium transport activity at 260 pmol/day and then 780 pmol/day ([4]; 260 pmol/day and 780 pmol/day, 4 consecutive days, FIG. 5A) | intestinal calcium transport activity compared with 1,25(OH)2D3 ([4]; in vivo, dose dependent, FIGS. 5A and 5B) |
| --- | --- | --- | --- | --- | --- | --- | --- | --- | --- | --- | --- | --- |
| C=C1/C(=C\C=C2/CCC[C@]3(C)[C@@H]([C@H](C)CCCC(C)(C)O)CC[C@@H]23)C[C@@H](O)C[C@@H]1O [1α,25-dihydroxyvitamin D3, reference compound] | increased serum calcium levels at all dosages | 0.3 | 2 |  |  |  |  |  |  |  |  |  |
| C=C1[C@H](O)CC(=C/C=C2\CCC[C@]3(C)[C@@H]([C@H](C)/C=C/C(=O)C4(C(=O)CCCCC)CC4)CC[C@@H]23)C[C@H]1O [UW-05, 2-methylene-(22E)-25-hexanoyl-24-oxo-26,27-cyclo-22-dehydro-19-nor-1α-hydroxyvitamin D3] |  | 0.3 |  | no substantial effect was seen | 780 | 7020 | about 10 times | 4 | 0.3 | did not result in substantial activity | a significant increase in effect was seen | approximately equal to 1,25-dihydroxyvitamin D3 |
